One may read the IC50 as the concentration that gives 50% inhibition.

Structures are written as SMILES.

In test [1] the target is T1, C-C chemokine receptor type 2 (Homo sapiens, UniProt P41597). Briefly: Binding affinity at human CCR2 receptor.
For test [2], the target named is T1, C-C chemokine receptor type 2. Briefly: Antagonist activity at CCR2 receptor expressed in THP1 cells assessed as inhibition of MCP-1-induced chemotaxis.

T1 sequence (P41597 whole entry): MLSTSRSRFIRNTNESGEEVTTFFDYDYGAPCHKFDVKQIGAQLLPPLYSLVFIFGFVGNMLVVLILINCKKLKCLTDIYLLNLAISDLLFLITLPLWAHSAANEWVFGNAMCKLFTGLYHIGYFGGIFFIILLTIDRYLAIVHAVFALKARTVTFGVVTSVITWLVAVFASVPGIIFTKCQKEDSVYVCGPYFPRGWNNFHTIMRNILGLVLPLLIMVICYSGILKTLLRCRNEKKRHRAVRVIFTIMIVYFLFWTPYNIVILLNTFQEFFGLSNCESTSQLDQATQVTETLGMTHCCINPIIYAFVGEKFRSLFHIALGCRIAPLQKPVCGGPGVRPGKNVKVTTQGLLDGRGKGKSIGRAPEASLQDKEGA

As for `O=C(/C=C/c1cc(F)c(F)c(F)c1)N1CCC([C@@H](CO)N2CCC(c3c[nH]c4ccccc34)CC2)CC1`, the IC50 in test [1] amounted to 2.4 nM; in test [2], 3.5 nM.
In test [1], `CC(=O)Nc1ccc2[nH]cc(C3CCN(C(CO)C4CCN(C(=O)/C=C/c5cc(F)c(F)c(F)c5)CC4)CC3)c2c1` (configuration not stated) showed a half-inhibitory concentration (IC50) of 2 nM.
On the same count and under the same terms, under `CN(C)CC(C1CCN(C(=O)/C=C/c2cc(F)c(F)c(F)c2)CC1)N1CCC(c2c[nH]c3ccccc23)CC1` (configuration not stated) stands 4800 nM; under `O=C(/C=C/c1cccc(Br)c1)N1CCC(C(CO)N2CCC(c3c[nH]c4ccccc34)CC2)CC1` (configuration not stated), 9 nM; under `O=C(/C=C/c1cc(F)c(F)c(F)c1)N1CCC([C@H](CO)N2CCC(c3c[nH]c4ccccc34)CC2)CC1`, 10 nM.
In the case of `O=C(/C=C/c1ccc(F)c(Br)c1)N1CCC(C(CO)N2CCC(c3c[nH]c4ccccc34)CC2)CC1` (configuration not stated), the IC50 in test [1] amounted to 2 nM.
As to `COC(=O)c1ccc2[nH]cc(C3CCN(C(CO)C4CCN(C(=O)/C=C/c5cc(F)c(F)c(F)c5)CC4)CC3)c2c1` (configuration not stated), the IC50 in test [1] is 20 nM.
The same measure, in the same setting: to `COC(=O)c1ccc2[nH]cc(C3CCN(C(CO)C4CCN(C(=O)Nc5ccc(Cl)c(Cl)c5)CC4)CC3)c2c1` (configuration not stated) belongs 50 nM; to `O=C(O)c1ccc2[nH]cc(C3CCN(C(CO)C4CCN(C(=O)Nc5ccc(Cl)c(Cl)c5)CC4)CC3)c2c1` (configuration not stated), 10 nM.
Same read-out and setting: to `Nc1ccc2[nH]cc(C3CCN(C(CO)C4CCN(C(=O)/C=C/c5cc(F)c(F)c(F)c5)CC4)CC3)c2c1` (configuration not stated) belongs 1 nM.
Same read-out and setting: under `O=C(/C=C/c1cc(F)c(F)c(F)c1)N1CCC(C(CO)N2CCC(c3c[nH]c4ccc(O)cc34)CC2)CC1` (configuration not stated) stands 1 nM.
